Measured values taken from PMC12275099, “VX-445 (elexacaftor) inhibits chloride secretion across human bronchial epithelial cells by directly blocking KCa3.1 channels” (PNAS Nexus, 2025).

Target: T1, endogenous KCa3.1 in WT CFTR-expressing HBEs (Homo sapiens, UniProt O15554)
T1 construct: endogenous in cells; host or cells: undifferentiated primary human bronchial epithelial cells (WT CFTR donors)
Test: Whole-cell patch-clamp on undifferentiated HBEs
Type: cell-based
Settings: VX-445 10 µM; 500 nM free Ca2+ in pipette; n = 3; read-out: inhibition of whole-cell outward potassium current
Description: Our Isc results are consistent with VX-445 inhibiting KCa3.1 in HBEs. To directly assess this possibility, we initially carried out whole-cell patch-clamp studies on undifferentiated HBEs. […] Upon application of 10 µM VX-445, a majority of this current was inhibited, averaging 87 ± 4% (n = 3, P < 0.005; Fig. 3B). A summary of the current–voltage (I–V) relationship—normalized to cell capacitance—is shown in Fig. 3C, which also includes the whole-cell I–V in the presence of Tram-34. […] To ensure isolation of KCa3.1 currents and to more fully characterize this VX-445-dependent inhibition of KCa3.1, we utilized HEK cells heterologously expressing KCa3.1 (HEK-KCa3.1). Initially, we confirmed our results from HBEs, using whole-cell recordings, as above. […] In seven experiments, this inhibition averaged 58 ± 7% (P < 0.005). […] It is well recognized that drugs are carried to their targets in the blood bound to albumin, which ranges from 3.4 to 5.4%. Thus, we determined whether VX-445 (10 µM) would inhibit KCa3.1 expressed in HEK cells in the presence of 3.4% albumin. In four experiments, VX-445 inhibited an average of 51 ± 17% of the whole-cell KCa3.1 current, which is not different from that observed in the absence of albumin. To confirm the direct effect of VX-445 on KCa3.1, we utilized the excised, inside-out patch-clamp technique. The patch was then exposed to DCEBIO (100 µM) to further activate the channels ([34–37])—analogous to our Isc studies in HBEs. […] In three experiments, VX-445 inhibited an average of 63 ± 6% of the KCa3.1 current. Based on these experiments, we determined the apparent inhibitory constant, Ki for VX-445. For these experiments, patches were excised into saturating Ca^2+ (3 µM) to ensure maximal KCa3.1 activation. These studies were carried out in the absence of DCEBIO to eliminate the possibility that the inhibition observed was due to competition for the DCEBIO-binding site.
Primary human bronchial epithelial cells (HBEs) were collected from unused or discarded samples from the Center for Organ Recovery and Education via the University of Pittsburgh Pulmonary, Allergy, Critical Care, and Sleep Medicine Lung Biobank and Repository. All experimental procedures involving the use of HBEs were approved by the institutional review board (IRB STUDY19090084) and the Committee for Oversight of Research and Clinical Training Involving Decedents (CORID number 451) at the University of Pittsburgh. At all times, authors were blind to the identity of HBE donors. HBEs were cultured using the Vertex method ([72]). Studies were carried out on WT CFTR HBEs from 11 ([13]) donors and homozygous F508del/F508del CFTR HBEs from five ([5]) separate donors. […]

Cc1nn(C)cc1S(=O)(=O)NC(=O)c1ccc(-n2ccc(OCC(C)(C)C(F)(F)F)n2)nc1N1C[C@@H](C)CC1(C)C [VX-445, elexacaftor]
inhibition at 10 µM: 87 ± 4%
